Data: the supplement of paper PMC11451515

Experiments:
Conditions in all cases: 48 h
NOMO1 [1] = test: cell viability relative to DMSO control; higher = less cytotoxic
Summary of the method: (§1)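 Three leukemia lines were tested: NOMO1 and SEM at 500 cells/well and P12-Ichikawa at 1000 cells/well. Each was adapted for at least four passages in each medium and seeded in 5 μl in 1536-well plates, and library compounds in DMSO were pin-dosed from 47 μM to 0.79 nM in 11 threefold steps. After 48 h at 37°C, CellTiter-Glo One luminescence was read. Viability is a percentage relative to DMSO wells on each plate, with cell-free wells as background.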

P12-Ichikawa [2] = test: as above
Summary of the method: as §1

SEM cells [3] = test: as above
Summary of the method: as §1

NOMO1 [4] = test: AUC of viability dose-response curve (% viability x log10 dose units); higher = less sensitive
Summary of the method: (§2)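 Over 48 h at 37°C, leukemia cells in 1536-well plates (500 or 1000 cells/well), adapted to each medium, received library compounds in DMSO at 11 threefold doses from 47 μM to 0.79 nM. CellTiter-Glo One luminescence, normalised per plate to DMSO and cell-free wells, was fitted by a four-parameter log-logistic function of log10 dose. The area under the curve was then integrated by trapezoidal rule, after scaling curves above full viability and removing those that failed quality control.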

P12-Ichikawa [5] = test: as above
Summary of the method: as §2

SEM cells [6] = test: as above
Summary of the method: as §2

CC[C@@H]([C@H](C)O)n1ncn(-c2ccc(N3CCN(c4ccc(OCC5CO[C@@](Cn6cncn6)(c6ccc(F)cc6F)C5)cc4)CC3)cc2)c1=O (some centres not stated)
cell viability [%]
Conditions	NOMO1 [1]	P12-Ichikawa [2]	SEM cells [3]
HPLM + 10% dialyzed FBS, 0.000781 µM	109	102	92.3
HPLM + 10% dialyzed FBS, 0.00234 µM	106	99.8	110
HPLM + 10% dialyzed FBS, 0.00702 µM	91.5	101	107
HPLM + 10% dialyzed FBS, 0.0211 µM	112	96.3	107
HPLM + 10% dialyzed FBS, 0.0632 µM	106	98.3	114
HPLM + 10% dialyzed FBS, 0.19 µM	98.2	91.1	100
HPLM + 10% dialyzed FBS, 0.569 µM	109	100	107
HPLM + 10% dialyzed FBS, 1.71 µM	107	92.2	100
HPLM + 10% dialyzed FBS, 5.12 µM	82.4	90.8	102
HPLM + 10% dialyzed FBS, 15.4 µM	94.8	84.9	59.1
HPLM + 10% dialyzed FBS, 46.1 µM	84.9	85.1	82.7
RPMI 5 mM glucose + 10% FBS, 0.000781 µM	101	101	96.7
RPMI 5 mM glucose + 10% FBS, 0.00234 µM	97.3	102	101
RPMI 5 mM glucose + 10% FBS, 0.00702 µM	93.3	104	109
RPMI 5 mM glucose + 10% FBS, 0.0211 µM	97	97.8	105
RPMI 5 mM glucose + 10% FBS, 0.0632 µM	83.5	95	105
RPMI 5 mM glucose + 10% FBS, 0.19 µM	91.4	102	115
RPMI 5 mM glucose + 10% FBS, 0.569 µM	87.3	92.3	93.8
RPMI 5 mM glucose + 10% FBS, 1.71 µM	87	91.1	103
RPMI 5 mM glucose + 10% FBS, 5.12 µM	87.5	92.1	86.9
RPMI 5 mM glucose + 10% FBS, 15.4 µM	82.3	88.3	87.7
RPMI 5 mM glucose + 10% FBS, 46.1 µM	78.1	82.6	78.2
RPMI 5 mM glucose + 10% dialyzed FBS, 0.000781 µM	95.1	87.2	112
RPMI 5 mM glucose + 10% dialyzed FBS, 0.00234 µM	90.3	98	111
RPMI 5 mM glucose + 10% dialyzed FBS, 0.00702 µM	92.6	95.1	108
RPMI 5 mM glucose + 10% dialyzed FBS, 0.0211 µM	81.3	97.9	124
RPMI 5 mM glucose + 10% dialyzed FBS, 0.0632 µM	93.6	90.9	106
RPMI 5 mM glucose + 10% dialyzed FBS, 0.19 µM	83.4	87.7	105
RPMI 5 mM glucose + 10% dialyzed FBS, 0.569 µM	92.1	85.7	106
RPMI 5 mM glucose + 10% dialyzed FBS, 1.71 µM	90.1	89.8	115
RPMI 5 mM glucose + 10% dialyzed FBS, 5.12 µM	90.4	85.1	102
RPMI 5 mM glucose + 10% dialyzed FBS, 15.4 µM	87.1	83.5	90.7
RPMI 5 mM glucose + 10% dialyzed FBS, 46.1 µM	78.2	75	81.8

AUC of viability dose-response curve
Conditions	NOMO1 [4]	P12-Ichikawa [5]	SEM cells [6]
HPLM + 10% dialyzed FBS	457	450	452
RPMI 5 mM glucose + 10% FBS	427	447	452
RPMI 5 mM glucose + 10% dialyzed FBS	423	425	458

CC[C@H]1OC(=O)[C@H](C)C(=O)[C@H](C)[C@@H](O[C@H]2O[C@H](C)C[C@H](N(C)C)[C@H]2O)[C@](C)(OC)C[C@@H](C)C(=O)[C@H](C)[C@H]2N(CCCCn3cnc(-c4cccnc4)c3)C(=O)O[C@]12C
cell viability [%]
Conditions	NOMO1 [1]	P12-Ichikawa [2]	SEM cells [3]
HPLM + 10% dialyzed FBS, 0.000781 µM	–	102	99.7
HPLM + 10% dialyzed FBS, 0.00234 µM	–	119	118
HPLM + 10% dialyzed FBS, 0.00702 µM	–	98.3	136
HPLM + 10% dialyzed FBS, 0.0211 µM	–	115	120
HPLM + 10% dialyzed FBS, 0.0632 µM	–	120	135
HPLM + 10% dialyzed FBS, 0.19 µM	–	116	123
HPLM + 10% dialyzed FBS, 0.569 µM	–	99.1	105
HPLM + 10% dialyzed FBS, 1.71 µM	–	98.3	109
HPLM + 10% dialyzed FBS, 5.12 µM	–	104	107
HPLM + 10% dialyzed FBS, 15.4 µM	–	96.1	105
HPLM + 10% dialyzed FBS, 46.1 µM	–	96.1	85.2
RPMI 5 mM glucose + 10% FBS, 0.000781 µM	127	103	95.6
RPMI 5 mM glucose + 10% FBS, 0.00234 µM	118	109	110
RPMI 5 mM glucose + 10% FBS, 0.00702 µM	118	111	116
RPMI 5 mM glucose + 10% FBS, 0.0211 µM	111	115	117
RPMI 5 mM glucose + 10% FBS, 0.0632 µM	115	122	124
RPMI 5 mM glucose + 10% FBS, 0.19 µM	120	104	114
RPMI 5 mM glucose + 10% FBS, 0.569 µM	104	88.3	114
RPMI 5 mM glucose + 10% FBS, 1.71 µM	116	89.5	97.8
RPMI 5 mM glucose + 10% FBS, 5.12 µM	118	103	119
RPMI 5 mM glucose + 10% FBS, 15.4 µM	107	105	102
RPMI 5 mM glucose + 10% FBS, 46.1 µM	103	96.5	93.3
RPMI 5 mM glucose + 10% dialyzed FBS, 0.000781 µM	102	111	110
RPMI 5 mM glucose + 10% dialyzed FBS, 0.00234 µM	121	122	124
RPMI 5 mM glucose + 10% dialyzed FBS, 0.00702 µM	110	140	121
RPMI 5 mM glucose + 10% dialyzed FBS, 0.0211 µM	109	147	117
RPMI 5 mM glucose + 10% dialyzed FBS, 0.0632 µM	113	130	135
RPMI 5 mM glucose + 10% dialyzed FBS, 0.19 µM	104	82	126
RPMI 5 mM glucose + 10% dialyzed FBS, 0.569 µM	100	63.3	99.3
RPMI 5 mM glucose + 10% dialyzed FBS, 1.71 µM	98.8	89.9	119
RPMI 5 mM glucose + 10% dialyzed FBS, 5.12 µM	116	114	104
RPMI 5 mM glucose + 10% dialyzed FBS, 15.4 µM	107	92.6	118
RPMI 5 mM glucose + 10% dialyzed FBS, 46.1 µM	95.9	97.5	86.1

AUC of viability dose-response curve
Conditions	NOMO1 [4]	P12-Ichikawa [5]	SEM cells [6]
HPLM + 10% dialyzed FBS	439	452	447
RPMI 5 mM glucose + 10% FBS	447	444	462
RPMI 5 mM glucose + 10% dialyzed FBS	459	395	453

Cc1cc2c(C(N)=O)cccc2n1-c1nc2c(c(NCc3ccccc3)n1)COCC2
cell viability [%]
Conditions	NOMO1 [1]	P12-Ichikawa [2]	SEM cells [3]
HPLM + 10% dialyzed FBS, 0.000781 µM	117	99.5	89.6
HPLM + 10% dialyzed FBS, 0.00234 µM	124	92.4	95.4
HPLM + 10% dialyzed FBS, 0.00702 µM	101	92.2	73
HPLM + 10% dialyzed FBS, 0.0211 µM	108	93.2	87.2
HPLM + 10% dialyzed FBS, 0.0632 µM	114	99.8	93.5
HPLM + 10% dialyzed FBS, 0.19 µM	103	89.6	93.3
HPLM + 10% dialyzed FBS, 0.569 µM	85.5	78.4	84.9
HPLM + 10% dialyzed FBS, 1.71 µM	25	85.9	38.7
HPLM + 10% dialyzed FBS, 5.12 µM	4.02	2.18	3.03
HPLM + 10% dialyzed FBS, 15.4 µM	3.66	2.06	2.9
HPLM + 10% dialyzed FBS, 46.1 µM	3.75	3.98	3.03
RPMI 5 mM glucose + 10% FBS, 0.000781 µM	89.3	99.6	–
RPMI 5 mM glucose + 10% FBS, 0.00234 µM	106	96.2	–
RPMI 5 mM glucose + 10% FBS, 0.00702 µM	92.9	95.5	–
RPMI 5 mM glucose + 10% FBS, 0.0211 µM	87.8	93.8	–
RPMI 5 mM glucose + 10% FBS, 0.0632 µM	99.8	91.2	–
RPMI 5 mM glucose + 10% FBS, 0.19 µM	98	94.6	–
RPMI 5 mM glucose + 10% FBS, 0.569 µM	81.6	81.7	–
RPMI 5 mM glucose + 10% FBS, 1.71 µM	44.1	63.1	–
RPMI 5 mM glucose + 10% FBS, 5.12 µM	3.08	2.37	–
RPMI 5 mM glucose + 10% FBS, 15.4 µM	3.4	1.97	–
RPMI 5 mM glucose + 10% FBS, 46.1 µM	3.91	2.61	–
RPMI 5 mM glucose + 10% dialyzed FBS, 0.000781 µM	92.9	95.9	94.5
RPMI 5 mM glucose + 10% dialyzed FBS, 0.00234 µM	90.3	94.4	105
RPMI 5 mM glucose + 10% dialyzed FBS, 0.00702 µM	92.4	95.6	85.5
RPMI 5 mM glucose + 10% dialyzed FBS, 0.0211 µM	92.8	97.7	87.7
RPMI 5 mM glucose + 10% dialyzed FBS, 0.0632 µM	91.2	96.3	101
RPMI 5 mM glucose + 10% dialyzed FBS, 0.19 µM	100	95.4	99.4
RPMI 5 mM glucose + 10% dialyzed FBS, 0.569 µM	73.3	91.8	95.8
RPMI 5 mM glucose + 10% dialyzed FBS, 1.71 µM	20.6	72.9	24.1
RPMI 5 mM glucose + 10% dialyzed FBS, 5.12 µM	3.21	2.73	3.45
RPMI 5 mM glucose + 10% dialyzed FBS, 15.4 µM	2.75	2.42	3.44
RPMI 5 mM glucose + 10% dialyzed FBS, 46.1 µM	2.84	2.96	3.1

AUC of viability dose-response curve
Conditions	NOMO1 [4]	P12-Ichikawa [5]	SEM cells [6]
HPLM + 10% dialyzed FBS	312	330	295
RPMI 5 mM glucose + 10% FBS	315	322	310
RPMI 5 mM glucose + 10% dialyzed FBS	293	334	312
